Data on 2 compounds can be found in patent publication EP4545091A1 (priority 2023, dated 2025).

Where a name gives a salt, the structure may show the parent alone. Bridges are numbered along the chain shown (N, C = ends).

Assay [1] has as its system SARS-CoV-2 Wuhan Hu-1 spike. Nature of the assay: microbe, parasite or virus in culture. The class given is cell-based. The conditions noted are these: Severe acute respiratory syndrome coronavirus 2, Caco-2, 48 h, read-out: IC50, SARS-CoV-2 spike-driven entry.
The subject of a further assay is SARS-CoV-2 Omicron BA.5. The class given is cell-based.
The subject of another assay is SARS-CoV spike. The conditions noted are these: 48 h.
Another assay deals with MERS-CoV spike. The conditions noted are these: 48 h.
Assay [2] has as its system SARS-CoV-2 Wuhan Hu-1 strain. The conditions noted are these: 48 h.
Assay [3] deals with Influenza A virus (IAV) H1N1. The conditions noted are these: virus (IAV, 48 h).
In the next assay the test system is VSV-G glycoprotein. It counts as cell-based.
For another assay, the system named is hCoV-NL63. The conditions noted are these: 48 h.
A further assay concerns SARS-CoV-2 BA.5. It counts as cell-based.

For orientation: IC50 means the midpoint of a concentration-inhibition curve. Turning to `CN(C)C(=O)COC(=O)Cc1ccc(OC(=O)c2ccc(NC(=N)N)cc2)cc1` [Camostat mesylate], in assay [1], the IC50 amounted to 70 nM.
For the compound “VAACNLPIVRGPCRAFIQLWAFDAVKGKCVLFPYGGCQGNGNKFYSEKECREYCGVPGDGD (disulfide 4-54, 13-37, 29-50) [Trypstatin]”, the “viral titers two days post infection” value with SARS-CoV-2 Omicron BA.5 is listed as “strongly reduced viral titers”. Moreover, the half-maximal inhibitory concentration (IC50) in the assay on SARS-CoV spike came to 31 nM; with MERS-CoV spike, 78 nM; in assay [2], 26 nM; in assay [3], 222 nM; with hCoV-NL63, 190 nM. Besides, in the assay with VSV-G glycoprotein, the “entry of VSV-G bearing control pseudoparticles” value was “did not affect entry”. Moreover, the “reduction of cumulative RNA copy production” value with SARS-CoV-2 BA.5 was more than 99.9%. The “replication (RNA copies/ml in supernatants)” value with SARS-CoV-2 BA.5 is on record as “almost entirely prevented replication”.
